This experiment has as its system insulinase. As to the kind of experiment: insulinase inhibitory activity measurement (method of Duckworth et al.). The experiment is classed as biochemical. Conditions: fractions of commercial bacitracin, result in words. The method, then: The desired fraction is believed to have a molecular weight of about 1400, approximately the same as bacitracin A or F. Their anti-insulinase and antibacterial activities can be assayed in conventional manner. For example, the insulinase inhibitory activity was measured according to the method of Duckworth, et al., Proc. Nat. Acad. Sci., 69, 3698-3702 (1972) and the anti-bacterial activity by the method of Patrick, et al., Antibiotics and Chemotherapy, 1, 133-137 (1951).
A 350 ml bed volume of CM-Sepharose in a packed column (2.8 x 56 cm) was equilibrated with 0.05M ammonium acetate, pH 4.5 One gram of commercial bacitracin dissolved in 50 ml of buffer was applied to the packed column. The material was eluted with 2 l of equilibrating buffer followed by 350 ml of 1M ammonium acetate pH 4.5 buffer. Five ml fractions were collected and absorbance measurements at 252, 280 and 290 nm were made. In addition, insulinase inhibitory activity measurements were made on each peak. […] The peaks were collected, lyophilized, weighed and dissolved in water at 5 mg/ml concentration for specific activity measurements. The material collected with the second buffer contained 5-10 % of the total weight of the applied material and 90 % of the total insulinase inhibitory capacity. The specific activity of this material was 10-12 times that of the starting commercial material.

On to bacitracin A, for which the insulinase inhibitory activity result was “substantially no anti-insulinase activity”. Further, the insulinase inhibitory activity result (listed as Bacitracin A) was “negligible”.

In the case of bacitracin F, the insulinase inhibitory activity result is reported as “substantially no anti-insulinase activity”. The insulinase inhibitory activity entry (listed as Bacitracin F) is on record as “negligible”.

The values above are taken from patent publication EP0302445B1, “A novel hypoglycemic and growth-promoting agent” (THE PROTOR CO., priority 1987, dated 1992).
